# From patent US20240261434A1, “PRODUCTS AND METHODS FOR TREATING MUSCULAR DYSTROPHY” (priority 2020, published 2024)
# How the values were obtained:
# Format in all cases: in vivo, mouse
# [1] = tested on: tibialis anterior (TA) muscle; test: Force generation and protection from eccentric contractions, tibialis anterior of Dup2 mice; design: Eccentric contraction: % force decrease: scale not given here; conditions: tail vein adult Dup2 mice
# Protocol: Physiologic studies were conducted on TA muscles from 12 week old mice that had been treated with an intramuscular injection of 3.1×10^11 vg at 8 weeks (N≥5 limbs). For systemic studies, the mice were 20-21 weeks old following 12 weeks of treatment (N≥12 limbs). The force study procedure was conducted using a modified version of Hakim's procedure (Hakim et al., J Appl. Physiol. (1985) 2011; 110:1656-1663; Wein et al., Nat. Med. 2014; 20:992-1000). Initial anesthetization of mice was conducted by giving an intraperitoneal injection of a cocktail containing five times their weight (i.e., the weight of the mouse) of 25 mg/mL ketamine and twice their weight of 2.5 mg/ml xylazine. […]
# The resting force was set to between 3-4 g for a 10 minute equilibrium period. The TA muscle was then stimulated at the optimal length (Lo, mm) and active tetanic muscle force was recorded to give the absolute force measurement using the Lab View-based DMC program (Aurora Scientific). […] The cross-sectional area measured as mass (g)/(muscle density×ratio of fiber length×Lo) where muscle density is 1.06 mg/mm^3 and the ratio of fiber length in the TA is 0.6 (Burkholder et al., J Morphol 1994; 221:177-190). […] Statistical significance was assessed using a Kruskal-Wallace test assuming nonparametric data in the GraphPad Prism (version 6.03 for Windows, GraphPad Software, San Diego California USA). […]
# DMD exon 2 = test: RT-PCR quantification of DMD exon 2 skipping (Dup2, WT, Del2 transcripts) in muscles of Dup2 mice; conditions: adult Dup2 mice, tail vein, 3 months post-injection
# Protocol: Total RNA was isolated from tissue samples and analyzed by reverse transcription (RT) followed by PCR. […] For each sample, 1 μg of total RNA was used to generate cDNA by RT-PCR using random hexamer primers according to the manufacturer's protocol (Thermo Scientific, Ferk1672) and then used for a single PCR of 35 cycles using 1 μg of RNA and a mixture of random hexamer and oligo(dT) for each RT reaction. mRNA was then amplified via primers specific to the DMD 5′UTR and the exon 3-4 junction as follows.
# Following electrophoresis, PCR products were electrophoresed on a 2% agarose gel and imaged using a Gel Logic 200 Imaging System (Kodak). Quantification of Dup2, WT or Del2 transcript was performed using ImageJ (an open source platform for scientific image analysis), and each band plotted in Prism (GraphPad) as a percentage of the overall dystrophin transcript. The images were then used to quantify the relative amount of each transcript using ImageJ software 14. Using the “Gel” function of ImageJ, a box was drawn in each lane around the area where the three possible transcripts would be. A histogram of each sample was then generated and the area under the curve was measured. The sum of the area under the three peaks were added together and then individual peak area was measured as a percentage of the total.
# Dup2 mice [2] = test: Evans blue dye (EBD) positive fibers after exhaustive treadmill exercise in Dup2 mice; conditions: adult Dup2 mice, tail vein
# Protocol: (§1) To induce muscle injury for Evans blue dye (EBD) analysis, a treadmill exercise program was used. In the first week, four month old mice were trained three times on a treadmill at 10° inclination, running as follows: 0 m/min for 2 min, 5 m/min for 5 min, 10 m/min for 15 min, and 12 m/min for 5-10 min. In the following three weeks (3×/week), mice ran on the treadmill at 2 m/min for 30 min. Before mice euthanasia, the treadmill was used at the same inclination at 5 m/min for 5 min. Following this initial warming up, the speed was increased to +1 m/min until exhaustion. EBD solution (10 mg/ml in PBS) was filtered and injected intraperitoneally (IP) into mice after the last treadmill exercise, and mice were sacrificed 24 hrs later. For analysis, muscle sections were stained with α-laminin to distinguish myofibers, and the percentage of positive Evans blue fibers (labeled in red) were then quantified using ImageJ software. For quantification of centronucleation, H&E staining was performed using standard technique, and fiber counting was performed manually using ImageJ. For both analyses, three sections were processed and counted for each animal.
# (§2) H&E staining was performed using standard protocol. Quantification of both centronucleation and Evans blue dye (EBD) was performed manually using ImageJ. Three sections were processed and counted for each animal.
# [3] = qPCR quantification of viral vector genomes (biodistribution) in muscles of Dup2 mice; conditions: adult Dup2 mice, tail vein, 3 months post-injection
# Protocol: Physical titer determination was determined based on degradation of non-encapsidated DNA following digestion of viral capsids. Released encapsidated DNA was quantified by qPCR to determine the DNAase Resistant Particle (DRP) titer. The DRP titer (also referred to as vector genomes [vg]) were determined for scAAV9.U7.ACCA or scAAV1.U7-ACCA products using real-time quantitative PCR (qPCR) using dilutions of a linearized plasmid standard containing U7 amplicon as assay standards. The DRP quantitative PCR (qPCR) assay involves serial dilution of the test sample (10^−2 to 10^−5) and sequential digestion with DNase I and Proteinase K, followed by qPCR analysis. DNA detection was accomplished using sequence specific primers targeting a primer/probe combination specific to the construct sequence (probe: 5′-[…]-3′ (SEQ ID NO: 4); Fw primer: 5′-agctcctatgttgttaTCTAGAG-3′ (SEQ ID NO: 5); Rv primer: 5′-[…]-3′ (SEQ ID NO: 6)) and amplified using a fluorescently tagged probe hybridizing to the U7 amplicon. Titration of the encapsidated viral genome were performed using quantitative PCR-based titration method runned on a Prism 7500 Taqman detector system (PE Applied Biosystems).
# All tissues and organs for qPCR/Biodistribution studies were placed into sterile tubes, snap-frozen in liquid nitrogen, and kept at <−70° C. qPCR analyses were performed on samples at 1, 3 and 6 months post-injection. 300 ul DNA lysis buffer (0.05M Tris-HCl pH 8, 0.1M NaCl, 0.1M EDTA, 1% SDS) plus 7.5 ul proteinase K were added to sections and incubated at 55° C. overnight. DNA was quantified and 25 ng of DNA was run in triplicate. The same qPCR primers and probe used for vector titration were used to perform the tissue biodistribution qPCR studies. Data were represented as normalized copy number per 1 ug DNA.
# Dup2 mice [4] = test: Quantification of centronucleation of myofibers (H&E) in Dup2 mice; conditions: adult Dup2 mice, tail vein, 3 months post-injection
# Protocol: as §1, §2
# dystrophin = test: Western blot / immunoblot quantification of dystrophin in muscles of Dup2 mice; conditions: for Western blot quantification: % of dystrophin: percent of WT, adult Dup2 mice, tail vein, 3 months post-injection
# Protocol: (§3) 150 μl of this lysis buffer was used for 100 mg of tissue. This solution was then put on ice for 30min, and then tissue was lysed using a metal bead (1 min at 30 Hz, TissueLyser II, Qiagen). These last two steps were repeated, and then the lysate was centrifuged at 14000 g for 20min at 4° C. The supernatant was mixed with a classical 4× Laemmli buffer and boiled for 5 min at 100° C. 50-150 μg of protein were run on a precast 3-8% Tris-Acetate gel (NuPage, Life Science) for 16 h at 80V (4° C.). Using a nitrocellulose membrane, gels were transferred overnight at 300 mA using a cooling device. […] All antibodies were diluted in half Odyssey blocking buffer (Licor®) and half Tris buffered saline with Tween (TBST) (Sigma-Aldrich). Following secondary incubation, 5×5 min with 0.1% Tween washes were performed followed by a ddH2O rincing. Both IRDye@ signals were simultaneously scanned using the Odyssey® CLx (LI-COR). The signals for both dystrophin, utrophin and α-actinin were quantified using ImageJ.
# With some experiments, 25×40 μm thick sections of cryopreserved tissues were used for western blotting to quantify amount of restored dystrophin protein. Extracted protein was run on 3-8% Tris-Acetate protein gels and visualized using specific primary antibodies against dystrophin or α-actinin the corresponding Licor secondary antibodies IRDye 680 or IRDye 800 (as set out above). Blots were imaged using the Licor Odyssey CLx and quantified using ImageJ.
# Steel beads were added to the tissue, which was homogenized using the Tissuelyser II (Qiagen) for 2 min at a rate of 30/sec. Lysates were then incubated on ice and spun down; the supernatant was removed and stored at −80═ C. until immunoblotting, and the cell debris was discarded. For immunoblotting, 50 μg C57BL/6 muscle tissue protein or 150 μg Dup2 muscle tissue protein was loaded with a loading dye (1× laemmli) on a 3-8% Tris Acetate gel (Life Technologies, EA0378BOX). […] The membrane was scanned on the Odyssey CLx and imaged using Image Studio 14. Single color channel images were using Image Studio and then imported into ImageJ for quantification. For each channel, a box was drawn in each lane around the protein band using the “Gel” function in ImageJ. A histogram of each sample was then generated and the area under the curve was measured. Dystrophin was normalized to α-actinin by dividing the area of the dystrophin band by the area of the α-actinin band for each sample. If the same sample was run on multiple immunoblots, the median was taken to represent that particular sample. The C57BL/6 measurement was determined by taking the mean of all wild type samples. Both treated Dup2 and control Dup2 measurements were reported as a percentage of the wild type (n≥3).
# utrophin = test: Western blot quantification of utrophin in muscles of Dup2 mice; conditions: adult Dup2 mice, tail vein, 3 months post-injection
# Protocol: as §3
structure (smiles),measurement,setting,value
"C[C@H]1C[C@@H]2[C@H]([C@@H](O)C[C@@]3(C)[C@H]2CC[C@]3(O)C(=O)COC(=O)CCC(=O)[O-])[C@@]2(C)C=CC(=O)C=C12.[Na+] [PDN, 6α-methylprednisolone 21-hemisuccinate sodium salt]",Absolute force: Force (mN),[1],1401 mN
same,Eccentric contraction: % force decrease,[1]; repeated eccentric contractions,0.52
same,RT-PCR quantification: % of Del2 transcript,DMD exon 2; DIA,0%
same,RT-PCR quantification: % of Dup2 transcript,DMD exon 2; DIA,97.7%
same,RT-PCR quantification: % of WT transcript,DMD exon 2; DIA,2.3%
same,RT-PCR quantification: % of Del2 transcript,DMD exon 2; GAS,4.3%
same,RT-PCR quantification: % of Dup2 transcript,DMD exon 2; GAS,86%
same,RT-PCR quantification: % of WT transcript,DMD exon 2; GAS,9.6%
same,RT-PCR quantification: % of Del2 transcript,DMD exon 2; HEART,0%
same,RT-PCR quantification: % of Dup2 transcript,DMD exon 2; HEART,98.3%
same,RT-PCR quantification: % of WT transcript,DMD exon 2; HEART,1.6%
same,RT-PCR quantification: % of Del2 transcript,DMD exon 2; TA,0%
same,RT-PCR quantification: % of Dup2 transcript,DMD exon 2; TA,100%
same,RT-PCR quantification: % of WT transcript,DMD exon 2; TA,0%
same,RT-PCR quantification: % of Del2 transcript,DMD exon 2; TRI,0%
same,RT-PCR quantification: % of Dup2 transcript,DMD exon 2; TRI,98.3%
same,RT-PCR quantification: % of WT transcript,DMD exon 2; TRI,1.7%
same,% of EBD positive fibers,Dup2 mice [2]; DIA,12.31%
same,% of EBD positive fibers,Dup2 mice [2]; GAS,3.04%
same,% of EBD positive fibers,Dup2 mice [2]; TA,8.14%
same,% of EBD positive fibers,Dup2 mice [2]; TRI,2.57%
same,viral vector genome quantification,[3]; DIA,17 vector/ug DNA
same,viral vector genome quantification,[3]; GAS,15 vector/ug DNA
same,viral vector genome quantification,[3]; HEART,188 vector/ug DNA
same,viral vector genome quantification,[3]; TA,39 vector/ug DNA
same,viral vector genome quantification,[3]; TRI,50 vector/ug DNA
same,% of centronucleation,Dup2 mice [4]; DIA,68.55%
same,% of centronucleation,Dup2 mice [4]; TA,71.12%
same,Western blot quantification: % of dystrophin,dystrophin; DIA,9.2%
same,dystrophin expression,"dystrophin; Dup2 mice, PDN alone",does not induce dystrophin expression
same,Western blot quantification: % of dystrophin,dystrophin; GAS,2.1%
same,Western blot quantification: % of dystrophin,dystrophin; HEART,13.7%
same,Western blot quantification: % of dystrophin,dystrophin; TA,4.83%
same,Western blot quantification: % of dystrophin,dystrophin; TRI,4.8%
same,Western blot quantification: ratio of utrophin/a-actinin,utrophin; DIA,0.6
same,Western blot quantification: ratio of utrophin/a-actinin,utrophin; GAS,0.2
same,Western blot quantification: ratio of utrophin/a-actinin,utrophin; HEART,0.5
same,Western blot quantification: ratio of utrophin/a-actinin,utrophin; TA,0.3
same,Western blot quantification: ratio of utrophin/a-actinin,utrophin; TRI,0.4
